Source: patent US8178506B2, “Oligomeric compounds and compositions for use in modulation of small non-coding RNAs” (Regulus Therapeutics Inc., priority 2003, dated 2012)
In the oligonucleotide strings, read from the 5' end, every base follows the letter of its sugar. An asterisk marks phosphorothioate; unmarked linkages are phosphodiester. Other units and linkages are bracketed, terminal groups are in braces. A string of capitals states the bases alone. e = 2'-O-(2-methoxyethyl) (MOE); [5mC] = 5-methylcytosine; d = 2'-deoxy (DNA)

Assays:
Format in all cases: cell-based, human
preadipocytes = experiment: Caspase assay in preadipocytes; conditions: for Fold Increase over UTC (caspase activity): untreated control set equal to 1.0
Source text: The effect of oligomeric compounds of the present invention targeting miRNAs was examined in preadipocytes (Zen-Bio, Inc., Research Triangle Park, N.C.) using the fluorometric caspase assay previously described in Example 11.

leptin = experiment: Leptin secretion by adipocytes (ELISA); conditions: adipocytes, 250 nM oligomeric compound, day nine post-transfection, relative to control (1.0); Table 16
Experimental: Leptin secretion into the medium in which adipocytes are cultured is measured by protein ELISA. On day nine post-transfection, 96-well plates are coated with a monoclonal antibody to human leptin (R&D Systems, Minneapolis, Minn.) and left at 4° C. overnight. The plates are blocked with bovine serum albumin (BSA), and a dilution of the treated adipoctye medium is incubated in the plate at room temperature for approximately 2 hours. After washing to remove unbound components, a second monoclonal antibody to human leptin (conjugated with biotin) is added. The plate is then incubated with strepavidin-conjugated horse radish peroxidase (HRP) and enzyme levels are determined by incubation with 3, 3′,5,5′-tetramethlybenzidine, which turns blue when cleaved by HRP. The OD450 is read for each well, where the dye absorbance is proportional to the leptin concentration in the cell lysate.
Leptin is also a marker for differentiated adipocytes. In the adipocyte assay, leptin secretion into the media above the differentiated adipocytes was measured by protein ELISA. Cell growth, transfection and differentiation procedures were carried out as described for the Triglyceride accumulation assay (see below). On day nine post-transfection, 96-well plates were coated with a monoclonal antibody to human leptin (R&D Systems, Minneapolis, Minn.) and left at 4° C. overnight. The plates were blocked with bovine serum albumin (BSA), and a dilution of the media was incubated in the plate at RT for 2 hours. After washing to remove unbound components, a second monoclonal antibody to human leptin (conjugated with biotin) was added. The plate was then incubated with strepavidin-conjugated horseradish peroxidase (HRP) and enzyme levels are determined by incubation with 3, 3′, 5,5′-Tetramethlybenzidine, which turns blue when cleaved by HRP. The OD450 was read for each well, where the dye absorbance is proportional to the leptin concentration in the cell lysate. Results are expressed as a percent±standard deviation relative to transfectant-only controls.

[1] = tested on: differentiated adipocytes; experiment: Hallmark genes and triglycerides in differentiated adipocytes; conditions: Table 28; differentiated adipocytes transfected day nine post-differentiation; 250 nM oligonucleotide
Source text: The effect of the oligomeric compounds of the present invention targeting miRNAs on the expression of markers of cellular differentiation was examined in differentiated adipocytes.
As previously described, the HSL, aP2, Glut4, and PPARγ genes play important rolls in the uptake of glucose and the metabolism and utilization of fats. Also as previously described, an increase in triglyceride content is another well-established marker for adipocyte differentiation. Human white preadipocytes (Zen-Bio Inc., Research Triangle Park, N.C.) were grown in preadipocyte media (ZenBio Inc.). After the cells reached confluence (approximately three days), they were exposed to differentiation media (Zen-Bio, Inc.) containing a PPAR-γ agonist, IBMX, dexamethasone, and insulin for three days. Cells were then fed Adipocyte Medium (Zen-Bio, Inc.), which was replaced at 2 to 3 day intervals. One day before transfection, 96-well plates were seeded with 3000 cells/well. Cells were then transfected on day nine post-differentiation, according to standard published procedures with 250 nM oligonucleotide in LIPOFECTIN™ (Invitrogen Corporation, Carlsbad, Calif.) (Monia et al., J. Biol. Chem. 1993 268(19):14514-22). Oligomeric compounds were tested in triplicate on each 96-well plate, and the effect of TNF-α, known to inhibit adipocyte differentiation, was also measured in triplicate. Oligomeric compound treatments and transfectant-only negative controls may be measured up to six times per plate. On day twelve post-differentiation, cells were washed and lysed at room temperature, and the expression of the four hallmark genes, HSL, aP2, Glut4, and PPARγ, as well as triglyceride (TG) accumulation were measured in adipocytes transfected with the uniform 2′-MOE phosphorothioate (PS) previously described in Example 13 as well as the chimeric gapmer oligomeric compounds targeting the mir-143 miRNA and the mir-143 pri-miRNA described in Example 16. On day twelve post-differentiation, cells were lysed in a guanadinium-containing buffer and total RNA was harvested. The amount of total RNA in each sample was determined using a Ribogreen Assay (Molecular Probes, Eugene, Oreg.). Real-time PCR was performed on the total RNA using primer/probe sets for the adipocyte differentiation hallmark genes Glut4, HSL, aP2, and PPARγ. Triglyceride levels as well as mRNA levels for each of the four adipocyte differentiation hallmark genes are expressed relative to control levels (control=treatment with ISIS-29848 (SEQ ID NO: 737)).

| Substance | Fold Increase over UTC (caspase activity) (preadipocytes) [fold over UTC] | Leptin (secretion) (leptin) | Glut4 [1] | HSL [1] | PPAR gamma [1] | TG [1] | aP2 [1] | caspase activity (preadipocytes) |
| --- | --- | --- | --- | --- | --- | --- | --- | --- |
| 327925 (antisense eT*eA*eG*e[5mC]*eT*eG*eG*eT*eT*eG*eA*eA*eG*eG*eG*eG*eA*e[5mC]*e[5mC]*eA*eA) [compound 327925] | 2.0 | 1.40 | 0.74 | 1.20 | 1.30 | 1.33 | 0.78 |  |
| 338664 (antisense e[5mC]*eA*eG*eA*e[5mC]*eT*e[5mC]*e[5mC]*e[5mC]*eA*eA*e[5mC]*eT*eG*eA*e[5mC]*e[5mC]*eA*eG*eA) [compound 338664] |  |  | 1.08 | 1.01 | 1.06 | 1.72 | 0.77 |  |
| 327934 (antisense eG*eG*eT*eA*e[5mC]*eA*eA*eT*e[5mC]*eA*eA*e[5mC]*eG*eG*eT*e[5mC]*eG*eA*eT*eG*eG*eT) [compound 327934] | 2.0 | 1.25 | 1.52 | 1.97 | 1.54 | 1.43 | 1.50 |  |
| 327888 (antisense eA*eA*eT*eG*e[5mC]*e[5mC]*e[5mC]*e[5mC]*eT*eA*eA*eA*eA*eA*eT*e[5mC]*e[5mC]*eT*eT*eA*eT) [compound 327888] | 1.1 | 1.38 | 0.56 | 0.84 | 1.69 | 1.13 | 0.73 |  |
| 327880 (antisense eA*e[5mC]*eA*eA*eA*eT*eT*e[5mC]*eG*eG*eT*eT*e[5mC]*eT*eA*e[5mC]*eA*eG*eG*eG*eT*eA) [compound 327880] |  |  | 0.76 | 0.93 | 1.86 | 1.12 | 1.14 |  |
| 327893 (antisense eA*eA*e[5mC]*e[5mC]*eA*e[5mC]*eA*e[5mC]*eA*eA*e[5mC]*e[5mC]*eT*eA*e[5mC]*eT*eA*e[5mC]*e[5mC]*eT*e[5mC]*eA) [compound 327893] | 1.3 | 1.14 |  |  |  |  |  |  |
| 327922 (antisense eT*e[5mC]*eA*eG*eT*eT*eT*eT*eG*e[5mC]*eA*eT*eG*eG*eA*eT*eT*eT*eG*e[5mC]*eA*e[5mC]*eA) [compound 327922] | 1.0 | 1.25 | 0.61 | 1.01 | 0.99 | 1.48 | 0.91 |  |
| 327905 (antisense e[5mC]*eA*eG*eA*e[5mC]*eT*e[5mC]*e[5mC]*eG*eG*eT*eG*eG*eA*eA*eT*eG*eA*eA*eG*eG*eA) [compound 327905] | 1.5 | 1.62 | 0.58 | 0.65 | 1.31 | 1.18 | 0.85 |  |
| 327933 (antisense eA*eA*eG*eG*eG*eA*eT*eT*e[5mC]*e[5mC]*eT*eG*eG*eG*eA*eA*eA*eA*e[5mC]*eT*eG*eG*eA*e[5mC]) [compound 327933] |  |  | 2.12 | 1.30 | 1.60 | 1.63 | 1.58 |  |
| 327913 (antisense eA*eA*e[5mC]*e[5mC]*eG*eA*eT*eT*eT*e[5mC]*eA*eA*eA*eT*eG*eG*eT*eG*e[5mC]*eT*eA*eG) [compound 327913] |  |  | 1.52 | 1.09 | 1.29 | 1.12 | 1.05 |  |
| TGAGCTACAGTGCTTCATCTCA [ISIS 327901] (chemistry not given here) [uniform 2′-MOE PS; targets mir-143] |  |  |  |  |  |  |  | does not result in a significant increase in caspase activity |
| 327919 (antisense eG*eA*eA*eA*e[5mC]*e[5mC]*e[5mC]*eA*eG*e[5mC]*eA*eG*eA*e[5mC]*eA*eA*eT*eG*eT*eA*eG*e[5mC]*eT) [compound 327919] | 1.3 | 1.44 | 1.82 | 0.83 | 1.80 | 1.15 | 1.20 |  |
| 327876 (antisense eA*eA*e[5mC]*eA*e[5mC]*eT*eG*eA*eT*eT*eT*e[5mC]*eA*eA*eA*eT*eG*eG*eT*eG*e[5mC]*eT*eA) [compound 327876] |  |  | 3.53 | 0.81 | 1.28 | 1.16 | 0.67 |  |
| 327892 (antisense eA*e[5mC]*eT*eT*eT*e[5mC]*eG*eG*eT*eT*eA*eT*e[5mC]*eT*eA*eG*e[5mC]*eT*eT*eT*eA) [compound 327892] |  |  | 0.42 | 0.62 | 1.01 | 1.23 | 0.81 |  |
| 328382 (e[5mC]*eA*eG*eA*e[5mC]*dT*d[5mC]*d[5mC]*d[5mC]*dA*dA*d[5mC]*dT*dG*dA*e[5mC]*e[5mC]*eA*eG*eA) [compound 328382] |  |  | 0.75 | 0.53 | 0.97 | 1.33 | 0.92 |  |
| 327967 (antisense eA*e[5mC]*eT*eG*eT*eA*e[5mC]*eA*eA*eA*e[5mC]*eT*eA*e[5mC]*eT*eA*e[5mC]*e[5mC]*eT*e[5mC]*eA) [compound 327967] | 1.5 | 1.22 |  |  |  |  |  |  |
| 340927 (antisense eT*eG*eA*eG*e[5mC]*dT*dA*d[5mC]*dA*dG*dT*dG*d[5mC]*dT*dT*e[5mC]*eA*eT*e[5mC]*eT*e[5mC]*eA) [compound 340927] |  |  | 0.96 | 0.64 | 1.21 | 1.61 | 0.71 |  |
| 327931 (antisense eA*eA*e[5mC]*e[5mC]*eA*eT*eA*e[5mC]*eA*eA*e[5mC]*e[5mC]*eT*eA*e[5mC]*eT*eA*e[5mC]*e[5mC]*eT*e[5mC]*eA) [compound 327931] | 1.5 | 1.12 |  |  |  |  |  |  |
| 327954 (antisense eA*e[5mC]*eA*eA*eA*eG*eT*eT*e[5mC]*eT*eG*eT*eG*eA*eT*eG*e[5mC]*eA*e[5mC]*eT*eG*eA) [compound 327954] |  |  | 0.61 | 1.35 | 1.46 | 1.46 | 1.23 |  |
| 327878 (antisense e[5mC]*eT*eA*eG*eT*eG*eG*eT*e[5mC]*e[5mC]*eT*eA*eA*eA*e[5mC]*eA*eT*eT*eT*e[5mC]*eA*e[5mC]) [compound 327878] |  |  | 0.17 | 0.19 | 0.85 | 1.08 | 0.13 |  |
